Measured values reported in patent US10987359B2, “Oxadiazepinone derivatives and methods of treating hepatitis B infections” (priority 2016, dated 2021).

The compounds below were run on HBV (assay: HBV replication inhibition assay (BDNA assay) in HepG2.2.15 cells). Conditions: HBV replication assay (BDNA assay), HepG2.2.15 cells; read-out: DNA EC50.
Format: cell-based
Outline: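 HepG2.2.15 cells with stably integrated HBV were treated with serially diluted compounds at 0.5% DMSO for 6 days, with medium and compound refreshed at day 3. Encapsidated HBV DNA from DNase-treated supernatant was quantified by branched DNA assay. EC50 came from % inhibition versus DMSO, fitted non-linearly.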
For C[C@@H]1Cc2nn3c(c2CN1C(=O)Nc1ccc(F)c(C(F)(F)F)c1)C(=O)N(C)OC(CN(C)C)C3 (stereo in doubt) [Compound 098_D2, (4R*,9R)-4-((dimethylamino)methyl)-N-(4-fluoro-3-(trifluoromethyl)phenyl)-2,9-dimethyl-1-oxo-1,4,5,8,9,11-hexahydropyrido[4′,3′:3,4]pyrazolo[5,1-d][1,2,5]oxadiazepine-10(2H)-carboxamide], the EC50 was 1 to 100 nM.
In the case of C[C@@H]1Cc2nn3c(c2CN1C(=O)Nc1cc(Cl)c(F)cc1F)C(=O)N(C)OC(CN(C)C)C3 (stereo in doubt) [Compound 099_D2, (4R*,9R)—N-(5-chloro-2,4-difluorophenyl)-4-((dimethylamino)methyl)-2,9-dimethyl-1-oxo-1,4,5,8,9,11-hexahydropyrido[4′,3′:3,4]pyrazolo[5,1-d][1,2,5]oxadiazepine-10(2H)-carboxamide], the EC50 is reported as 100 to 500 nM.
With C[C@@H]1Cc2nn3c(c2CN1C(=O)Nc1cc(Br)c(F)cc1F)C(=O)N(C)OC(CN(C)C)C3 (stereo in doubt) [Compound 100_D1, (4S*,9R)—N-(5-bromo-2,4-difluorophenyl)-4-((dimethylamino)methyl)-2,9-dimethyl-1-oxo-1,4,5,8,9,11-hexahydropyrido[4′,3′:3,4]pyrazolo[5,1-d][1,2,5]oxadiazepine-10(2H)-carboxamide] the EC50 was 100 to 500 nM.
With C[C@@H]1Cc2nn3c(c2CN1C(=O)Nc1cc(Br)c(F)cc1F)C(=O)N(C)OC(CN(C)C)C3 (stereo in doubt) [Compound 100_D2, (4R*,9R)—N-(5-bromo-2,4-difluorophenyl)-4-((dimethylamino)methyl)-2,9-dimethyl-1-oxo-1,4,5,8,9,11-hexahydropyrido[4′,3′:3,4]pyrazolo[5,1-d][1,2,5]oxadiazepine-10(2H)-carboxamide] the EC50 was 1 to 100 nM.
For CNC(=O)C1Cn2nc3c(c2C(=O)N(C)O1)CN(C(=O)Nc1cc(Cl)c(F)cc1F)[C@H](C)C3 (stereo in doubt) [Compound 111_D1, (4S*,9R)—N10-(5-chloro-2,4-difluorophenyl)-N4,2,9-trimethyl-1-oxo-1,4,5,8,9,11-hexahydropyrido[4′,3′:3,4]pyrazolo[5,1-d][1,2,5]oxadiazepine-4,10(2H)-dicarboxamide], the EC50 was greater than 1000 nM.
Compound CNC(=O)C1Cn2nc3c(c2C(=O)N(C)O1)CN(C(=O)Nc1cc(Cl)c(F)cc1F)[C@H](C)C3 (stereo in doubt) [Compound 111_D2, (4R*,9R)—N10-(5-chloro-2,4-difluorophenyl)-N4,2,9-trimethyl-1-oxo-1,4,5,8,9,11-hexahydropyrido[4′,3′:3,4]pyrazolo[5,1-d][1,2,5]oxadiazepine-4,10(2H)-dicarboxamide] has an EC50 of 1 to 100 nM.
In the case of CNC(=O)C1Cn2nc3c(c2C(=O)N(C)O1)CN(C(=O)Nc1ccc(F)c(C#N)c1)[C@H](C)C3 (stereo in doubt) [Compound 112_D1, (4S*,9R)—N10-(3-cyano-4-fluorophenyl)-N4,2,9-trimethyl-1-oxo-1,4,5,8,9,11-hexahydropyrido[4′,3′:3,4]pyrazolo[5,1-d][1,2,5]oxadiazepine-4,10(2H)-dicarboxamide], the EC50 is reported as greater than 1000 nM.
With CNC(=O)C1Cn2nc3c(c2C(=O)N(C)O1)CN(C(=O)Nc1ccc(F)c(C#N)c1)[C@H](C)C3 (stereo in doubt) [Compound 112_D2, (4R*,9R)—N10-(3-cyano-4-fluorophenyl)-N4,2,9-trimethyl-1-oxo-1,4,5,8,9,11-hexahydropyrido[4′,3′:3,4]pyrazolo[5,1-d][1,2,5]oxadiazepine-4,10(2H)-dicarboxamide] the EC50 was 1 to 100 nM.
In the case of C[C@@H]1Cc2nn3c(c2CN1C(=O)Nc1ccc(F)c(C(F)(F)F)c1)C(=O)N(C)OC(CN)C3 (stereo in doubt) [Compound 116_D2, (4R*,9R)-4-(aminomethyl)-N-(4-fluoro-3-(trifluoromethyl)phenyl)-2,9-dimethyl-1-oxo-1,4,5,8,9,11-hexahydropyrido[4′,3′:3,4]pyrazolo[5,1-d][1,2,5]oxadiazepine-10(2H)-carboxamide], the EC50 is reported as 1 to 100 nM.
With C[C@@H]1Cc2nn3c(c2CN1C(=O)Nc1ccc(F)c(Br)c1)C(=O)N(C)OC(CN)C3 (stereo in doubt) [Compound 117_D2, (4R*,9R)-4-(aminomethyl)-N-(3-bromo-4-fluorophenyl)-2,9-dimethyl-1-oxo-1,4,5,8,9,11-hexahydropyrido[4′,3′:3,4]pyrazolo[5,1-d][1,2,5]oxadiazepine-10(2H)-carboxamide] the EC50 was 1 to 100 nM.
With C[C@@H]1Cc2nn3c(c2CN1C(=O)Nc1ccc(F)c(Br)c1)C(=O)N(C)OC(COCC(F)F)C3 (stereo in doubt) [Compound 122_D2, (4R*,9R)—N-(3-bromo-4-fluorophenyl)-4-((2,2-difluoroethoxy)methyl)-2,9-dimethyl-1-oxo-1,4,5,8,9,11-hexahydropyrido[4′,3′:3,4]pyrazolo[5,1-d][1,2,5]oxadiazepine-10(2H)-carboxamide] the EC50 was 1 to 100 nM.
Compound C[C@@H]1Cc2nn3c(c2CN1C(=O)Nc1ccnc(Br)c1F)C(=O)N(C)OC(COCC(F)F)C3 (stereo in doubt) [Compound 123_D1, (4S*,9R)—N-(2-bromo-3-fluoropyridin-4-yl)-4-((2,2-difluoroethoxy)methyl)-2,9-dimethyl-1-oxo-1,4,5,8,9,11-hexahydropyrido[4′,3′:3,4]pyrazolo[5,1-d][1,2,5]oxadiazepine-10(2H)-carboxamide] has an EC50 of 100 to 500 nM.

Same assay, conditions: Hepatitis B virus, HepG2.2.15, HBV replication assay (BDNA assay), HepG2.2.15 cells; read-out: DNA EC50
C[C@@H]1Cc2nn3c(c2CN1C(=O)Nc1cc(Cl)c(F)cc1F)C(=O)N(C)OC(CN(C)C)C3 (stereo in doubt) [Compound 099_D1, (4S*,9R)—N-(5-chloro-2,4-difluorophenyl)-4-((dimethylamino)methyl)-2,9-dimethyl-1-oxo-1,4,5,8,9,11-hexahydropyrido[4′,3′:3,4]pyrazolo[5,1-d][1,2,5]oxadiazepine-10(2H)-carboxamide] showed an EC50 of 100 to 500 nM.
Work on CC[C@H]1Cc2nn3c(c2CN1C(=O)Nc1ccc(F)c(Cl)c1)C(=O)N(C)O[C@H](CO)C3 (stereo in doubt) [Compound 109_D1, (4S*,9S*)—N-(3-chloro-4-fluorophenyl)-9-ethyl-4-(hydroxymethyl)-2-methyl-1-oxo-1,4,5,8,9,11-hexahydropyrido[4′,3′:3,4]pyrazolo[5,1-d][1,2,5]oxadiazepine-10(2H)-carboxamide] yielded an EC50 of 100 to 500 nM.
Work on CC[C@@H]1Cc2nn3c(c2CN1C(=O)Nc1ccc(F)c(Cl)c1)C(=O)N(C)O[C@H](CO)C3 (stereo in doubt) [Compound 109_D2, (4S*,9R*)—N-(3-chloro-4-fluorophenyl)-9-ethyl-4-(hydroxymethyl)-2-methyl-1-oxo-1,4,5,8,9,11-hexahydropyrido[4′,3′:3,4]pyrazolo[5,1-d][1,2,5]oxadiazepine-10(2H)-carboxamide] yielded an EC50 of 100 to 500 nM.
CC[C@@H]1Cc2nn3c(c2CN1C(=O)Nc1ccc(F)c(Cl)c1)C(=O)N(C)O[C@@H](CO)C3 (stereo in doubt) [Compound 109_D3, (4R*,9R*)—N-(3-chloro-4-fluorophenyl)-9-ethyl-4-(hydroxymethyl)-2-methyl-1-oxo-1,4,5,8,9,11-hexahydropyrido[4′,3′:3,4]pyrazolo[5,1-d][1,2,5]oxadiazepine-10(2H)-carboxamide] gave an EC50 of 500 to 1000 nM.
CC[C@H]1Cc2nn3c(c2CN1C(=O)Nc1ccc(F)c(Cl)c1)C(=O)N(C)O[C@@H](CO)C3 (stereo in doubt) [Compound 109_D4, (4R*,9S*)—N-(3-chloro-4-fluorophenyl)-9-ethyl-4-(hydroxymethyl)-2-methyl-1-oxo-1,4,5,8,9,11-hexahydropyrido[4′,3′:3,4]pyrazolo[5,1-d][1,2,5]oxadiazepine-10(2H)-carboxamide] gave an EC50 of 100 to 500 nM.
CN1O[C@H](CN)Cn2nc3c(c2C1=O)CN(C(=O)Nc1ccc(F)c(C#N)c1)CC3 (stereo in doubt) [Compound 114_E1, (S*)-4-(aminomethyl)-N-(3-cyano-4-fluoro-phenyl)-2-methyl-1-oxo-5,8,9,11-tetrahydro-4H-pyrido[2,3]pyrazolo[2,4-d][1,2,5]oxadiazepine-10-carboxamide] showed an EC50 of 1 to 100 nM.
Work on C[C@@H]1Cc2nn3c(c2CN1C(=O)Nc1ccc(F)c(C(F)(F)F)c1)C(=O)N(C)OC(CN)C3 (stereo in doubt) [Compound 116_D1, (4S*,9R)-4-(aminomethyl)-N-(4-fluoro-3-(trifluoromethyl)phenyl)-2,9-dimethyl-1-oxo-1,4,5,8,9,11-hexahydropyrido[4′,3′:3,4]pyrazolo[5,1-d][1,2,5]oxadiazepine-10(2H)-carboxamide] yielded an EC50 of 1 to 100 nM.
C[C@@H]1Cc2nn3c(c2CN1C(=O)Nc1ccc(F)c(Br)c1)C(=O)N(C)OC(CN)C3 (stereo in doubt) [Compound 117_D1, (4S*,9R)-4-(aminomethyl)-N-(3-bromo-4-fluorophenyl)-2,9-dimethyl-1-oxo-1,4,5,8,9,11-hexahydropyrido[4′,3′:3,4]pyrazolo[5,1-d][1,2,5]oxadiazepine-10(2H)-carboxamide] gave an EC50 of 1 to 100 nM.
Work on C[C@@H]1Cc2nn3c(c2CN1C(=O)Nc1ccc(F)c(Cl)c1)C(=O)N(C)OC(COCC(F)F)C3 (stereo in doubt) [Compound 121_D2, (4R*,9R)—N-(3-chloro-4-fluorophenyl)-4-((2,2-difluoroethoxy)methyl)-2,9-dimethyl-1-oxo-1,4,5,8,9,11-hexahydropyrido[4′,3′:3,4]pyrazolo[5,1-d][1,2,5]oxadiazepine-10(2H)-carboxamide] yielded an EC50 of 1 to 100 nM.
C[C@@H]1Cc2nn3c(c2CN1C(=O)Nc1ccc(F)c(Br)c1)C(=O)N(C)OC(COCC(F)F)C3 (stereo in doubt) [Compound 122_D1, (4S*,9R)—N-(3-bromo-4-fluorophenyl)-4-((2,2-difluoroethoxy)methyl)-2,9-dimethyl-1-oxo-1,4,5,8,9,11-hexahydropyrido[4′,3′:3,4]pyrazolo[5,1-d][1,2,5]oxadiazepine-10(2H)-carboxamide] showed an EC50 of 1 to 100 nM.
